According to patent US20060035920A1, “Chk-1 inhibitors” (Millennium Pharmaceuticals, Inc., priority 2004, published 2006):

Target: T1, Recombinant human Chk1 (GST-Chk1) (Homo sapiens, UniProt O14757)
T1 construct: made in house; host or cells: insect cells (baculovirus, Bac-to-Bac system)
T1 sequence (O14757 1-476): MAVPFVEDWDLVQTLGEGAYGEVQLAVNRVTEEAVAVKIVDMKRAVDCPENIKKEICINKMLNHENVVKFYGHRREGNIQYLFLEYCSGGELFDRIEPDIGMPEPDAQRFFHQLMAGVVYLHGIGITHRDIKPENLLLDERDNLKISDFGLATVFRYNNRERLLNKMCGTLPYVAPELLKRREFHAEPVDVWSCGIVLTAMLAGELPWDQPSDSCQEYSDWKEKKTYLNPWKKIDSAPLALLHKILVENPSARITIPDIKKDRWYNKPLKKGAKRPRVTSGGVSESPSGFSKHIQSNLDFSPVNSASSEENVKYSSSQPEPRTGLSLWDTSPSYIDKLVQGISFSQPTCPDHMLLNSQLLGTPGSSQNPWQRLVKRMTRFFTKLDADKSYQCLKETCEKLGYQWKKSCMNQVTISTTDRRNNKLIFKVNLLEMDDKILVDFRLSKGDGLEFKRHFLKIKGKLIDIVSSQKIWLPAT
Assay: Chk1 DELFIA Kinase Assay
Format: biochemical
Protocol: Recombinant human Chk1 was expressed as a fusion protein with glutathione S-transferase at the amino-terminus (GST-Chk1) using standard baculovirus vectors and (Bac-to-Bac®) insect cell expression system purchased from GIBCO™ Invitrogen. Recombinant protein expressed in insect cells was purified using glutathione sepharose (Amersham Biotech) using standard procedures described by the manufacturer.
Chk1 DELFIA® Kinase Assay:
Assays (25 μL) utilized 2 nM GST-Chk1 containing 10 mM Tris, pH 7.5, 20% glycerol, 50 mM sodium chloride (NaCl), 0.01% Surfact-Amps® 20, 1 μM peptide stubstrate (Biotin-GLYRSPSMPEN-amide) (SEQ ID NO: 2), 01.% BSA, 2 mM DTT, 4% DMSO, 600 μM ATP, 10 mM MgCl2 and reacted for 50 minutes at room temperature. Reactions were terminated with 100 μL of Stop buffer containing 1% BSA, 10 mM Tris, pH 8.0, 150 mM NaCl, 100 mM EDTA. Stopped reactions (100 μL) were transferred to 96 well NeutrAvidin plates (Pierce) to capture the biotin-peptide substrate during a 30 minute room temperature incubation. Wells were washed and reacted with 100 μL PerkinElmer Wallac Assay Buffer containing 21.5 ng/ml anti-phospho-Ser216-Cdc25c rabbit polyclonal antibody from Cell Signaling Technology (Beverly, Mass.) and 292 ng/ml europium labeled anti-rabbit-IgG for 1 hour at room temperature. Wells were washed and europium released from the bound antibody by addition of Enhancement Solution (100 μL) (PerkinElmer Wallac) and detected using a Perkin Elmer Wallac Envison™ 2100 multilabel reader using standard manufacturer settings.

[1] = GST-Chk1 kinase assay, bound given in nM
[2] = GST-Chk1 in vitro kinase assay, bound given in μM

CCn1c(=O)c2c(C)[nH]nc2c2cc(C#CCN(C(C)C)C(C)(C)C)ccc21 [Compound I-38, 8-{3-[tert-butyl(isopropyl)amino]prop-1-yn-1-yl}-5-ethyl-3-methyl-2,5-dihydro-4H-pyrazolo[4,3-c]quinolin-4-one]
IC50 [1]: < 500 nM

CCn1c(=O)c2c(C)[nH]nc2c2cc(C#CC(C)(C)NC(C)(C)C)ccc21 [Compound I-39, 8-[3-(tert-butylamino)-3-methylbut-1-yn-1-yl]-5-ethyl-3-methyl-2,5-dihydro-4H-pyrazolo[4,3-c]quinolin-4-one]
IC50 [1]: < 500 nM

CCn1c(=O)c2c(C)[nH]nc2c2cc(/C=C/CN3[C@H](C)CC[C@@H]3C)ccc21 [Compound I-41, 8-{(1E)-3-[(2R,5S)-2,5-dimethylpyrrolidin-1-yl]prop-1-en-1-yl}-5-ethyl-3-methyl-2,5-dihydro-4H-pyrazolo[4,3-c]quinolin-4-one]
IC50 [1]: < 500 nM

CCn1c(=O)c2c(C)[nH]nc2c2ccc(CCCN3CCCC3)cc21 [Compound I-42, 5-ethyl-3-methyl-7-(3-pyrrolidin-1-ylpropyl)-2,5-dihydro-4H-pyrazolo[4,3-c]quinolin-4-one]
IC50 [2]: < 1000 nM
IC50 [1]: > 500 nM

CCN(CC)C/C=C/c1ccc2c(c1)c1n[nH]c(C)c1c(=O)n2CC [Compound I-43, 8-[(1E)-3-(diethylamino)prop-1-en-1-yl]-5-ethyl-3-methyl-2,5-dihydro-4H-pyrazolo[4,3-c]quinolin-4-one]
IC50 [1]: < 500 nM

CCn1c(=O)c2c(C)[nH]nc2c2cc(/C=C/CN(C(C)C)C(C)C)ccc21 [Compound I-44, 8-[(1E)-3-(diisopropylamino)prop-1-en-1-yl]-5-ethyl-3-methyl-2,5-dihydro-4H-pyrazolo[4,3-c]quinolin-4-one]
IC50 [1]: < 500 nM

CCn1c(=O)c2c(C)[nH]nc2c2cc(/C=C/CN(C)Cc3ccccc3)ccc21 [Compound I-45, 8-{(1E)-3-[benzyl(methyl)amino]prop-1-en-1-yl}-5-ethyl-3-methyl-2,5-dihydro-4H-pyrazolo[4,3-c]quinolin-4-one]
IC50 [1]: < 500 nM

CCN(CC)Cc1ccc(-c2ccc3c(c2)c2n[nH]c(C)c2c(=O)n3CC)s1 [Compound I-46, 8-{5-[(diethylamino)methyl]-2-thienyl}-5-ethyl-3-methyl-2,5-dihydro-4H-pyrazolo[4,3-c]quinolin-4-one]
IC50 [1]: < 500 nM

Cc1[nH]nc2c1c(=O)n(CCF)c1ccc(-c3ccc(CN4CCCC4)s3)cc21 [Compound I-47, 5-(2-fluoroethyl)-3-methyl-8-[5-(pyrrolidin-1-ylmethyl)-2-thienyl]-2,5-dihydro-4H-pyrazolo[4,3-c]quinolin-4-one]
IC50 [1]: < 500 nM

CCn1c(=O)c2c(C)[nH]nc2c2cc(-c3ccc(CN4CCc5ccccc5C4)s3)ccc21 [Compound I-48, 8-[5-(3,4-dihydroisoquinolin-2(1H)-ylmethyl)-2-thienyl]-5-ethyl-3-methyl-2,5-dihydro-4H-pyrazolo[4,3-c]quinolin-4-one]
IC50 [2]: < 1000 nM
IC50 [1]: > 500 nM

CCn1c(=O)c2c(C)[nH]nc2c2cc(-c3ccc(CN(C)C)s3)ccc21 [Compound I-50, 8-{5-[(dimethylamino)methyl]-2-thienyl}-5-ethyl-3-methyl-2,5-dihydro-4H-pyrazolo[4,3-c]quinolin-4-one]
IC50 [1]: < 500 nM

CCn1c(=O)c2c(C)[nH]nc2c2cc(-c3cnn(C)c3)ccc21 [Compound I-51, 5-ethyl-3-methyl-8-(1-methyl-1H-pyrazol-4-yl)-2,5-dihydro-4H-pyrazolo[4,3-c]quinolin-4-one]
IC50 [2]: < 1000 nM
IC50 [1]: > 500 nM

CCn1c(=O)c2c(C)[nH]nc2c2cc(-c3cn[nH]c3)ccc21 [Compound I-52, 5-ethyl-3-methyl-8-(1H-pyrazol-4-yl)-2,5-dihydro-4H-pyrazolo[4,3-c]quinolin-4-one]
IC50 [2]: < 1000 nM
IC50 [1]: > 500 nM

CCn1c(=O)c2c(C)[nH]nc2c2cc(-c3ccc(CN4CCCC4)s3)ccc21 [Compound I-53, 5-ethyl-3-methyl-8-[5-(pyrrolidin-1-ylmethyl)-2-thienyl]-2,5-dihydro-4H-pyrazolo[4,3-c]quinolin-4-one]
IC50 [1]: < 500 nM

CCn1c(=O)c2c(C)[nH]nc2c2cc(CCCN3CCCC3)ccc21 [Compound I-54, 5-ethyl-3-methyl-8-(3-pyrrolidin-1-ylpropyl)-2,5-dihydro-4H-pyrazolo[4,3-c]quinolin-4-one]
IC50 [2]: < 1000 nM
IC50 [1]: > 500 nM

CCn1c(=O)c2c(C)[nH]nc2c2cc(-c3ccc(CN4CCCC4)o3)ccc21 [Compound I-55, 5-ethyl-3-methyl-8-[5-(pyrrolidin-1-ylmethyl)-2-furyl]-2,5-dihydro-4H-pyrazolo[4,3-c]quinolin-4-one]
IC50 [1]: < 500 nM

CCCn1c(=O)c2c(C)[nH]nc2c2cc(-c3ccc(CN(C)C)s3)ccc21 [Compound I-56, 8-{5-[(dimethylamino)methyl]-2-thienyl}-3-methyl-5-propyl-2,5-dihydro-4H-pyrazolo[4,3-c]quinolin-4-one]
IC50 [1]: < 500 nM

CCN(CC)CCc1ccc(-c2ccc3c(c2)c2n[nH]c(C)c2c(=O)n3CC)s1 [Compound I-82, 8-{5-[2-(diethylamino)ethyl]-2-thienyl}-5-ethyl-3-methyl-2,5-dihydro-4H-pyrazolo[4,3-c]quinolin-4-one]
IC50 [1]: < 500 nM

CCn1c(=O)c2c(C)[nH]nc2c2cc(-c3ccc(CN4CC[C@H](O)C4)s3)ccc21 [Compound I-83, 5-ethyl-8-(5-{[(3S)-3-hydroxypyrrolidin-1-yl]methyl}-2-thienyl)-3-methyl-2,5-dihydro-4H-pyrazolo[4,3-c]quinolin-4-one]
IC50 [1]: < 500 nM
